In US20120270819A1, “USE OF COMPOUNDS WITH SGLT-1/SGLT-2 INHIBITOR ACTIVITY FOR PRODUCING MEDICAMENTS FOR TREATMENT OF BONE DISEASE” (SANOFI, priority 2009, published 2012):

How the values were obtained:
[1] = system: female Sprague-Dawley mature and young adult rats; assay: Animal study of bone quality, daily oral gavage for a minimum of 28 days (overall findings, histopathology); assay type: in vivo, rat
Description: The following were evaluated: clinical signs (at least weekly), body weight (weekly), food consumption (weekly), hormones (Days 13 and 27), serum and urinary biochemical markers of bone turnover (Days 13 and 27), serum chemistry (at necropsy), bone densitometry by dual energy X-ray absorptiometry (DXA) and peripheral quantitative computed tomography (pQCT) (Week 2 and 4, as well as ex vivo), macroscopic observations at necropsy, organ weights, histopathology, biomechanical strength testing and femoral length measurements.

[2] = system: female Sprague-Dawley mature and young adult rats; assay: Ex vivo pQCT of L3 and L4 lumbar vertebrae; assay type: in vivo, rat; conditions: L3 + L4 vertebral bodies; for pQCT Total Area / pQCT Total BMC / pQCT Total BMD / pQCT Trabecular Area / pQCT Trabecular BMC / pQCT Trabecular BMD: mean
Description: Peripheral QCT scans were performed ex vivo using an XCT Research SA or SA+ bone scanner with software version 5.50D. Scans were obtained for the right femur, L3 and L4 lumbar vertebra for all animals euthanized at the end of the treatment period as well as two found dead animals. These two animals were scanned twice due to technical oversight, however only the first scans obtained were reported and the second scans were kept with the study file, this had no impact on the study as both scans were considered equivalent.
For the vertebrae, the scans were obtained at the midpoint. The L3 vertebrae from four animal and L4 vertebrae from four animals were damaged at trimming and L4 vertebrae from one animal was lost during trimming, consequently, no scans were obtained on these vertebrae. Additional slices were obtained as considered appropriate to ensure the optimal scans and data acquisition.
All analyses were performed using the LOOP option of the analysis software. All other data generated as a result of the LOOP option were retained with the raw data but not reported. The most appropriate analysis mode for the femur and the lumbar vertebrae was used and documented in the raw data and the analysis details are presented in Table 6. All scan analysis data was retained and re-analyses documented.

COc1ccc(Cc2c(OC3OC(CO)C(F)C(O)C3O)n[nH]c2C(F)(F)F)cc1 (centres unmarked) [Example 5 of formula II]
effects on bone mass and bone strength associated parameters ([1]; both dose levels (10, 50 mg/kg/day), both rat populations): positive effects
trabecular bone noted histopathologically ([1]; young only): increase in trabecular bone
pQCT Total Area, percent difference from Vehicle Control ([2]; mature adults, 10 mg/kg/day): 2.3%
pQCT Total BMC, percent difference from Vehicle Control ([2]; mature adults, 10 mg/kg/day): 5.9%
pQCT Total BMD, percent difference from Vehicle Control ([2]; mature adults, 10 mg/kg/day): 3.6%
pQCT Trabecular Area, percent difference from Vehicle Control ([2]; mature adults, 10 mg/kg/day): 2.4%
pQCT Trabecular BMC, percent difference from Vehicle Control ([2]; mature adults, 10 mg/kg/day): 9.0%
pQCT Trabecular BMD, percent difference from Vehicle Control ([2]; mature adults, 10 mg/kg/day): 6.9%
pQCT Total Area ([2]; mature adults, 10 mg/kg/day): 7.7 mm^2
pQCT Total BMC ([2]; mature adults, 10 mg/kg/day): 5.6 mg/mm
pQCT Total BMD ([2]; mature adults, 10 mg/kg/day): 727.9 mg/cm^3
pQCT Trabecular Area ([2]; mature adults, 10 mg/kg/day): 3.5 mm^2
pQCT Trabecular BMC ([2]; mature adults, 10 mg/kg/day): 1.7 mg/mm
pQCT Trabecular BMD ([2]; mature adults, 10 mg/kg/day): 486.9 mg/cm^3
pQCT Total Area, percent difference from Vehicle Control ([2]; mature adults, 50 mg/kg/day): 7.4%
pQCT Total BMC, percent difference from Vehicle Control ([2]; mature adults, 50 mg/kg/day): 12.4%
pQCT Total BMD, percent difference from Vehicle Control ([2]; mature adults, 50 mg/kg/day): 4.5%
pQCT Trabecular Area, percent difference from Vehicle Control ([2]; mature adults, 50 mg/kg/day): 7.5%
pQCT Trabecular BMC, percent difference from Vehicle Control ([2]; mature adults, 50 mg/kg/day): 15.1%
pQCT Trabecular BMD, percent difference from Vehicle Control ([2]; mature adults, 50 mg/kg/day): 6.8%
pQCT Total Area ([2]; mature adults, 50 mg/kg/day): 8.1 mm^2
pQCT Total BMC ([2]; mature adults, 50 mg/kg/day): 5.9 mg/mm
pQCT Total BMD ([2]; mature adults, 50 mg/kg/day): 734.0 mg/cm^3
pQCT Trabecular Area ([2]; mature adults, 50 mg/kg/day): 3.6 mm^2
pQCT Trabecular BMC ([2]; mature adults, 50 mg/kg/day): 1.8 mg/mm
pQCT Trabecular BMD ([2]; mature adults, 50 mg/kg/day): 486.4 mg/cm^3
pQCT Total Area, percent difference from Vehicle Control ([2]; young adults, 10 mg/kg/day): 1.7%
pQCT Total BMC, percent difference from Vehicle Control ([2]; young adults, 10 mg/kg/day): 8.5%
pQCT Total BMD, percent difference from Vehicle Control ([2]; young adults, 10 mg/kg/day): 6.9%
pQCT Trabecular Area, percent difference from Vehicle Control ([2]; young adults, 10 mg/kg/day): 1.6%
pQCT Trabecular BMC, percent difference from Vehicle Control ([2]; young adults, 10 mg/kg/day): 10.5%
pQCT Trabecular BMD, percent difference from Vehicle Control ([2]; young adults, 10 mg/kg/day): 8.9%
pQCT Total Area ([2]; young adults, 10 mg/kg/day): 7.4 mm^2
pQCT Total BMC ([2]; young adults, 10 mg/kg/day): 4.9 mg/mm
pQCT Total BMD ([2]; young adults, 10 mg/kg/day): 659.9 mg/cm^3
pQCT Trabecular Area ([2]; young adults, 10 mg/kg/day): 3.4 mm^2
pQCT Trabecular BMC ([2]; young adults, 10 mg/kg/day): 1.6 mg/mm
pQCT Trabecular BMD ([2]; young adults, 10 mg/kg/day): 461.6 mg/cm^3
pQCT Total Area, percent difference from Vehicle Control ([2]; young adults, 50 mg/kg/day): −5.1%
pQCT Total BMC, percent difference from Vehicle Control ([2]; young adults, 50 mg/kg/day): 2.7%
pQCT Total BMD, percent difference from Vehicle Control ([2]; young adults, 50 mg/kg/day): 8.6%
pQCT Trabecular Area, percent difference from Vehicle Control ([2]; young adults, 50 mg/kg/day): −5.0%
pQCT Trabecular BMC, percent difference from Vehicle Control ([2]; young adults, 50 mg/kg/day): 2.7%
pQCT Trabecular BMD, percent difference from Vehicle Control ([2]; young adults, 50 mg/kg/day): 8.9%
pQCT Total Area ([2]; young adults, 50 mg/kg/day): 6.9 mm^2
pQCT Total BMC ([2]; young adults, 50 mg/kg/day): 4.7 mg/mm
pQCT Total BMD ([2]; young adults, 50 mg/kg/day): 670.6 mg/cm^3
pQCT Trabecular Area ([2]; young adults, 50 mg/kg/day): 3.1 mm^2
pQCT Trabecular BMC ([2]; young adults, 50 mg/kg/day): 1.4 mg/mm
pQCT Trabecular BMD ([2]; young adults, 50 mg/kg/day): 461.9 mg/cm^3
